Assays:
Experiment in all cases: Bliss excess, mean over the matrix (fraction); higher = more synergy
[1] = test system: KP-4 (Pancreatic Carcinoma)
Procedure, shortened: (§1)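 Cell lines grown in DMEM/F12 or RPMI with 10% FBS were plated in 1536-well plates and held 24 hours at 37°C, 5% CO2 before 72 hours of exposure to two-drug dose matrices, with DMSO typically at 0.2%. CellTiter-Glo 2.0 luminescence gave viability, which was converted to inhibition. Vehicle wells were set to 0 and blank wells to 1. Combination Emax is the second-highest inhibition in the matrix, and Bliss excess is the observed combination effect minus the expected EA + EB − EA·EB, where EA and EB are the single-agent effects.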

WM35 (Melanoma) = test system: WM35 (Melanoma)
Procedure, shortened: as §1

[2] = test system: NAMALWA (Burkitt's Lymphoma)
Procedure, shortened: as §1

[3] = test system: SCC-4 (Oral Cavity Carcinoma)
Procedure, shortened: as §1

SK-N-SH (Neuroblastoma) = test system: SK-N-SH (Neuroblastoma)
Procedure, shortened: as §1

AM-38 (Glioblastoma) = test system: AM-38 (Glioblastoma)
Procedure, shortened: as §1

NB1 (Neuroblastoma) = test system: NB1 (Neuroblastoma)
Procedure, shortened: as §1

GAK (Melanoma) = test system: GAK (Melanoma)
Procedure, shortened: as §1

[4] = test system: SK-CO-1 (Colorectal Carcinoma)
Procedure, shortened: as §1

[5] = test system: BHT-101 (Thyroid Gland Carcinoma)
Procedure, shortened: as §1

[6] = test system: SNU-C2B (Colorectal Carcinoma)
Procedure, shortened: as §1

[7] = test system: IA-LM (Non-Small Cell Lung Carcinoma)
Procedure, shortened: as §1

[8] = test system: NCI-H596 (Other Solid Carcinomas)
Procedure, shortened: as §1

[9] = test system: P30-OHK (B-Lymphoblastic Leukemia)
Procedure, shortened: as §1

[10] = test system: Raji (Burkitt's Lymphoma)
Procedure, shortened: as §1

[11] = test system: OAW-28 (Ovarian Carcinoma)
Procedure, shortened: as §1

[12] = test system: NCI-H1963 (Small Cell Lung Carcinoma)
Procedure, shortened: as §1

[13] = test system: SKG-IIIa (Cervical Carcinoma)
Procedure, shortened: as §1

[14] = test system: CL-11 (Colorectal Carcinoma)
Procedure, shortened: as §1

SMILES	Bliss excess [1]	Bliss excess (WM35 (Melanoma))	Bliss excess [2]	Bliss excess [3]	Bliss excess (SK-N-SH (Neuroblastoma))	Bliss excess (AM-38 (Glioblastoma))	Bliss excess (NB1 (Neuroblastoma))	Bliss excess (GAK (Melanoma))	Bliss excess [4]	Bliss excess [5]	Bliss excess [6]	Bliss excess [7]	Bliss excess [8]	Bliss excess [9]	Bliss excess [10]	Bliss excess [11]	Bliss excess [12]	Bliss excess [13]	Bliss excess [14]
Cc1nc(Nc2ncc(C(=O)Nc3c(C)cccc3Cl)s2)cc(N2CCN(CCO)CC2)n1 [Dasatinib] + CC(=O)Nc1cccc(-n2c(=O)n(C3CC3)c(=O)c3c(Nc4ccc(I)cc4F)n(C)c(=O)c(C)c32)c1 [Trametinib] (first compound max 2 µM, 7x7, partner max 1 µM)	0.0558	-0.0182	-0.0039	-0.0042	-0.0507	0.0091	-0.0502	-0.0624	0.0602	0.0569	-0.0275	0.117	-0.0018	-0.0442	-0.0232	0.0599	0.0078	-0.026	0.0766
NC1(C(=O)N[C@@H](CCO)c2ccc(Cl)cc2)CCN(c2ncnc3[nH]ccc23)CC1 [Capivasertib] + COc1nnc2ccc(N3CCC(c4ccc(OCCN5CCN(C)C(=O)[C@H]5C)cc4)CC3)nn12 [AZD5153] (first compound max 10 µM, 7x7, partner max 1 µM)	-0.0109	-0.0195	-0.0058	0.0043	0.0362	0.0039	0.0085	-0.0323	-0.0209	-0.0479	-0.0442	-0.141	-0.0136	0.0358	0.0469	0.0387	0.0036	0.0067	-0.0206
C[C@@H](c1ccc2nccn2c1)n1nnc2ncc(-c3cnn(C)c3)nc21 [Savolitinib] + CC1(C)CCC(CN2CCN(c3ccc(C(=O)NS(=O)(=O)c4ccc(NCC5CCOCC5)c([N+](=O)[O-])c4)c(Oc4cnc5[nH]ccc5c4)c3)CC2)=C(c2ccc(Cl)cc2)C1 [Venetoclax] (first compound max 1 µM, 7x7, partner max 1 µM)	-0.0556	-0.065	-0.0098	-0.0649	-0.0289	-0.0839	-0.0516	-0.0762	-0.0491	-0.0341	-0.0831	-0.0963	-0.0369	-0.0198	-0.0114	-0.0331	-0.0237	-0.0546	-0.0576
COc1nnc2ccc(N3CCC(c4ccc(OCCN5CCN(C)C(=O)[C@H]5C)cc4)CC3)nn12 [AZD5153] + Cc1c2c(nn1C)CSCc1cc(n(C)n1)CSc1cc(c3ccccc3c1)OCCCc1c(C(=O)O)n(C)c3c-2c(Cl)ccc13 [AZD5991] (first compound max 1 µM, 7x7, partner max 1 µM)	-0.0231	0.0634	-0.0536	-0.0208	-0.0334	-0.0083	-0.0211	-0.0183	-0.0377	0.0167	-0.0319	-0.0797	-0.0532	-0.0042	-0.0119	0.0515	0.0125	-0.0782	-0.0499
CS(=O)(=O)CCNCc1ccc(-c2ccc3ncnc(Nc4ccc(OCc5cccc(F)c5)c(Cl)c4)c3c2)o1 [Lapatinib] + C[C@@H](Oc1cc(-c2cnn(C3CCNCC3)c2)cnc1N)c1c(Cl)ccc(F)c1Cl [Crizotinib] (first compound max 10 µM, 7x7, partner max 10 µM)	-0.0775	-0.0446	-0.0528	0.0003	-0.0618	-0.0295	0.0158	-0.0066	-0.0721	-0.0399	-0.0515	-0.0133	-0.0065	0.0323	0.0203	-0.0177	-0.0272	-0.0438	-0.0477
CC(=O)c1c(C)c2cnc(Nc3ccc(N4CCNCC4)cn3)nc2n(C2CCCC2)c1=O [Palbociclib] + Cn1cnc2c(F)c(Nc3ccc(Br)cc3Cl)c(C(=O)NOCCO)cc21 [Selumetinib] (first compound max 10 µM, 7x7, partner max 10 µM)	-0.0235	-0.0282	-0.0123	0.0091	-0.0238	0.0242	-0.0669	0.0221	-0.0121	-0.0073	0.0282	0.0126	-0.0393	-0.0089	-0.0103	-0.0301	0.005	-0.0394	0.0303
NC1(C(=O)N[C@@H](CCO)c2ccc(Cl)cc2)CCN(c2ncnc3[nH]ccc23)CC1 [Capivasertib] + Cn1cnc2c(F)c(Nc3ccc(Br)cc3Cl)c(C(=O)NOCCO)cc21 [Selumetinib] (first compound max 10 µM, 7x7, partner max 10 µM)	0.0084	0.0104	-0.0231	0.042	-0.0223	0.0564	0.0054	-0.0649	0.0107	0.081	-0.022	-0.113	0.0182	0.0142	0.0036	-0.0034	0.0023	-0.0066	-0.0202
COc1nnc2ccc(N3CCC(c4ccc(OCCN5CCN(C)C(=O)[C@H]5C)cc4)CC3)nn12 [AZD5153] + C[C@@H]1COCCN1C2=NC(=NC(=C2)C3(CC3)[S@](=N)(=O)C)C4=C5C=CNC5=NC=C4 [AZD6738] (first compound max 1 µM, 7x7, partner max 10 µM)	-0.0217	0.0621	-0.0799	-0.0283	-0.0611	0.0447	0.0095	-0.0005	-0.0179	-0.0166	0.0233	-0.0353	-0.0028	-0.0012	-0.0198	0.11	-0.0228	0.0105	-0.0383
COc1cc2ncnc(Nc3ccc(F)c(Cl)c3)c2cc1OCCCN1CCOCC1 [Gefitinib] + CC(C)n1c(=O)n(C)c2cnc3cc(F)c(-c4ccc(OCCCN5CCCCC5)nc4)cc3c21 [AZD1390] (first compound max 10 µM, 7x7, partner max 0.3 µM)	-0.073	-0.0641	-0.0355	-0.059	-0.0718	-0.0811	-0.0419	-0.0656	-0.0056	-0.035	-0.06	-0.111	-0.0474	-0.0298	-0.0343	-0.0392	-0.0526	-0.0991	-0.0474
NC1(C(=O)N[C@@H](CCO)c2ccc(Cl)cc2)CCN(c2ncnc3[nH]ccc23)CC1 [Capivasertib] + CCN(CCO)CCCOc1ccc2c(Nc3cc(CC(=O)Nc4cccc(F)c4)[nH]n3)ncnc2c1 [AZD2811] (first compound max 10 µM, 7x7, partner max 1 µM)	-0.0379	-0.0471	0.0887	-0.0671	-0.0455	0.0122	-0.0284	-0.0181	-0.0431	-0.0124	-0.0032	-0.0113	0.017	-0.044	0.0021	0.0262	-0.023	-0.035	-0.0034
Cn1cnc2c(F)c(Nc3ccc(Br)cc3Cl)c(C(=O)NOCCO)cc21 [Selumetinib] + C[C@@H]1COCCN1C2=NC(=NC(=C2)C3(CC3)[S@](=N)(=O)C)C4=C5C=CNC5=NC=C4 [AZD6738] (first compound max 10 µM, 7x7, partner max 10 µM)	-0.0712	0.0172	-0.0083	-0.0352	-0.0719	0.104	0.0023	-0.0003	-0.112	-0.0174	0.0369	0.0061	-0.0333	0.012	-0.0273	0.046	0.0735	-0.0275	0.0244
Cn1cnc2c(F)c(Nc3ccc(Br)cc3Cl)c(C(=O)NOCCO)cc21 [Selumetinib] + CC(C)n1c(=O)n(C)c2cnc3cc(F)c(-c4ccc(OCCCN5CCCCC5)nc4)cc3c21 [AZD1390] (first compound max 10 µM, 7x7, partner max 0.3 µM)	-0.0571	-0.0551	-0.0102	-0.0669	-0.0624	-0.0389	-0.0646	-0.0415	-0.0168	-0.0429	-0.0081	-0.0102	-0.0459	-0.0043	-0.0189	0.0193	0.0154	-0.0444	0.0011
CC(=O)c1c(C)c2cnc(Nc3ccc(N4CCNCC4)cn3)nc2n(C2CCCC2)c1=O [Palbociclib] + CC1(C)CCC(CN2CCN(c3ccc(C(=O)NS(=O)(=O)c4ccc(NCC5CCOCC5)c([N+](=O)[O-])c4)c(Oc4cnc5[nH]ccc5c4)c3)CC2)=C(c2ccc(Cl)cc2)C1 [Venetoclax] (first compound max 10 µM, 7x7, partner max 1 µM)	-0.104	-0.0448	-0.0648	-0.0637	-0.0185	-0.0058	-0.0154	-0.034	-0.122	-0.0607	-0.036	-0.0647	-0.0501	0.126	0.0634	-0.0112	0.226	-0.0667	-0.0286
Cn1cnc2c(F)c(Nc3ccc(Br)cc3Cl)c(C(=O)NOCCO)cc21 [Selumetinib] + CCN(CCO)CCCOc1ccc2c(Nc3cc(CC(=O)Nc4cccc(F)c4)[nH]n3)ncnc2c1 [AZD2811] (first compound max 10 µM, 7x7, partner max 1 µM)	0.0217	-0.0566	0.0244	0.0003	-0.0557	-0.0208	-0.0138	-0.069	-0.0098	-0.0267	0.0193	-0.0353	-0.035	-0.0123	-0.0166	0.0388	0.0053	-0.0486	0.0129
NC1(C(=O)N[C@@H](CCO)c2ccc(Cl)cc2)CCN(c2ncnc3[nH]ccc23)CC1 [Capivasertib] + C[C@@H]1COCCN1C2=NC(=NC(=C2)C3(CC3)[S@](=N)(=O)C)C4=C5C=CNC5=NC=C4 [AZD6738] (first compound max 10 µM, 7x7, partner max 10 µM)	-0.0371	-0.02	-0.0194	-0.109	-0.0576	-0.0121	-0.0341	-0.0552	-0.0786	-0.0345	0.0158	0.008	-0.0105	0.0468	0.0187	0.0005	-0.0142	-0.0602	-0.0376
